How the values were obtained:
[1] = Intestinal stability, rat intestinal S9; assay type: in vitro ADME
Protocol: The stability of compounds 1 and 2, and the control compound 7-hydroxycoumarin, were measured using human, rat, and mouse intestinal S9 fractions (Xenotech). Test compound working solutions were prepared by diluting 5 μL of 10 mM stock solutions in DMSO with 495 μL AN. S9 solutions were prepared by diluting the obtained S9 solutions to 1.0 mg/mL in 100 mM potassium phosphate buffer at pH 7.4 containing 10 mM D-saccharic acid-1,4-lactone. An Apricot automation workstation was used to add 100 μL/well of S9 solution to all reaction plates (Blank, T0, T5, T15, T30, T45, T60 and NCF60); 2 μL/well of compound working solutions were added to all 96-well reaction plates except the blank (T0, T5, T15, T30, T45, T60, and NCF60); 600 μL/well of stop solution (4° C. ACN containing 200 ng/mL tolbutamide and 200 ng/mL labetalol as internal standards) was added to the T0 reaction plate; all plates were pre-incubated at 37° C. for 10 minutes; a cofactor regenerating system (98 μL/well) was added, excluding the NCF60 plate which instead received 98 μL/well of 100 mM potassium phosphate buffer. All plates were then incubated at 37° C. To terminate reactions, 600 μL/well of stop solution was applied at specific end time points. After sealing and a 10-minute shaking, plates were centrifuged at 4000 rpm and 4° C. for 20 minutes. Concurrently, 300 μL/well of HPLC grade water was loaded onto eight new 96-well bioanalysis plates. Post-centrifugation, 100 μL supernatant from each reaction plate was transferred to its corresponding bioanalysis plate, shaken for 10 minutes, and then subjected to LC-MS/MS analysis (Shimadzu LC-40D LC system coupled to a Sciex Qtrap 6500 Plus mass spectrometer, using both positive and negative ion modes).

[2] = Pharmacokinetics in the rat, dosing in solution; conditions: rat, in vivo, 25 mg/kg
[3] = system: mice with cerulein-induced chronic pancreatitis; test: Cerulein model of chronic pancreatitis (CP); assay type: in vivo, mouse; conditions: 100 mg/Kg daily on the last 4 weeks
Protocol: Using the cerulein model, acute edematous pancreatitis was induced in two test groups of mice by eight hourly intraperitoneal injections of 50 μg/Kg cerulein, with control group mice receiving injections of physiological saline. Compound 2, at 100 mg/Kg, was administered to one of the cerulein groups by gavage 30 minutes after the first and fourth cerulein injections. Mice were sacrificed one hour after the last injection and tissues were collected for histological analysis. […] Recurrent acute pancreatitis (RAP) and chronic pancreatitis (CP) were induced by repetitive cerulein injections every third day over a span of 14 days (RAP) or 6 weeks (CP). Compound 2 was administered daily at 50 mg/Kg on the last 10 consecutive days for RAP and at 100 mg/Kg on the last 4 weeks for CP, with vehicle controls. Mice were sacrificed 1 day after the last cerulein injection and tissues were collected for histological analysis. In the CP model, the cerulein injections induced extensive acinar cell damage.

Dp16 mice = test: Dp16 mouse model of Down syndrome challenged with poly(I:C); assay type: in vivo
From the text: Waugh et al., “Triplication of the interferon receptor locus contributes to hallmarks of Down syndrome in a mouse model”, Nat. Genet., 55, 1034-1047 (2023), note that the B6.129S7-Dp(16Lipi-Zbtb21)1Yey/J mouse model of DS, sometimes referred to as the Dp16 mouse, carries a segmental duplication of mouse chromosome 16 causing triplication of ˜120 protein-coding genes orthologous to those on human chromosome 21, including the Ifnr cluster; and that Dp16 mice display key phenotypes of DS including hyperactive IFN signaling, a dysregulated antiviral response, increased prevalence of heart defects, developmental delays, cognitive impairments and craniofacial anomalies. The TLR3 agonist polyinosinic-polycytidylic acid, poly(I:C), is an innate immune stimulus known to trigger an IFN response. Three groups of Dp16 mice were dosed from day ˜7 through 10 by gavage at 10 mg/Kg, twice/day for the first 5 days and once/day thereafter, with vehicle (2 groups) or compound 2 in vehicle (1 group), and one of the vehicle groups and the compound 2 group were dosed by injection with poly(I:C) on day 7, while the other vehicle group was given a sham injection. Treatment with compound 2 ameliorated the increased expressions of cytokines, IFNα and […], TNF-α, IL-2, -5, -6, -10, and -12P70, and attenuated the inflammatory response, including ameliorating the skin thickening, induced by Poly(I:C) in these Dp16 mice. Transcriptome analysis of liver samples identified gene sets substantially dysregulated in the Dp16 mice and attenuated by treatment with compound 2; including signatures of increased cell proliferation (E2F targets and G2/M checkpoint), increased JAK/STAT and interferon signaling, and decreased fatty acid metabolism. The genistein phosphate derivatives of this invention are therefore expected to be useful for the treatment of subjects with Down syndrome.

[4] = system: patients with moderate to severe rheumatoid arthritis; test: Randomized, double-blind, placebo-controlled study in rheumatoid arthritis; assay type: in vivo, human; conditions: oral 500 mg capsule once daily for 24 weeks; expected
Protocol: Approximately 120 patients, ages 30-65, diagnosed with rheumatoid arthritis according to the 2010 ACR/EULAR classification criteria, are enrolled in a randomized, double-blind, placebo-controlled study to evaluate the efficacy of compound 2 in patients with moderate to severe rheumatoid arthritis. Participants are randomized to receive either oral compound 2 (500 mg capsule) or placebo once daily for a period of 24 weeks. The primary efficacy endpoint is the improvement in the Disease Activity Score-28 (DAS28) with C-reactive protein (CRP) at week 24. A clinically meaningful reduction in DAS28 score is defined as a reduction of ≥1.2 points from baseline. Secondary endpoints include: Improvement in physical function as measured by the Health Assessment Questionnaire Disability Index (HAQ-DI), reduction in morning stiffness and joint pain, and changes in levels of inflammatory cytokines such as TNF-α, IL-6, and IL-1β. […] Additionally, compound 2 is expected to reduce serum levels of pro-inflammatory cytokines and markers of joint damage such as matrix metalloproteinases (MMPs), thus providing evidence of its disease-modifying effects.

With `O=c1c(-c2ccc(O)cc2)coc2cc(OCOP(=O)(O)O)cc(O)c12` [Compound 2, ((5-Hydroxy-3-(4-hydroxyphenyl)-4-oxo-4H-chromen-7-yl)oxy)methyl dihydrogen phosphate] the “normalized control factor remaining” value [1] was 68.6%, the half-life at 1 µM ([1]; intestinal S9 fraction, pH 7.4) was 48.3 min and the microsomal CLint at 1 µM ([1]; intestinal S9 fraction, pH 7.4, read-out: intrinsic clearance rate) was 28.7 µL/min/mg. For the same molecule, the Cmax ([2]; male, SD) was ~30 ng/mL, the Tmax ([2]; male, SD) was ~8 min and the “decline of plasma concentration of dosed compound” value [2] was “very rapid decline in concentration”. For the same molecule, the “overall outcome over untreated mice (histology)” value [3] was “marked improvement”, the acinar cell death ([3]; vs untreated group) was “significant reduction” and the acinar cell density ([3]; vs untreated group) was “increase”. The “inflammatory response induced by Poly(I:C)” value (Dp16 mice; 10 mg/Kg by gavage) was “attenuated”, the “skin thickening induced by Poly(I:C)” value (Dp16 mice; 10 mg/Kg by gavage) was “ameliorating” and the “increased expressions of cytokines, IFNα and […], TNF-α, IL-2, -5, -6, -10, and -12P70” value (Dp16 mice; 10 mg/Kg by gavage, twice/day first 5 days then once/day, poly(I:C) injection) was “ameliorated”. For the same molecule, the “dysregulated liver gene sets (cell proliferation, JAK/STAT and interferon signaling, fatty acid metabolism)” value (Dp16 mice; transcriptome analysis of liver samples) was “attenuated” and the “serum levels of pro-inflammatory cytokines” value [4] was “reduce”.
